Data set [1] relates to calf thymus dsDNA. Briefly: Absorption and emission spectra of nucleic acid binding dyes. It counts as physicochemical. As to the method: All absorption spectra were measured on a Beckman Coulter DU-800 spectrophotometer at room temperature. All fluorescence spectra were measured on a Hitachi F-4500 fluorescence spectrophotometer at room temperature. To record the complete emission profiles, excitation wavelengths were set 30 nm shorter than the absorption maxima of the dyes. The dsDNA used was calf thymus dsDNA from Sigma. When dsDNA was present in the dye solutions, spectra were recorded after the dyes had been incubated with the DNA for at least 10 minutes.

In data set [2] the test system is HeLa cells fixed in 4% paraformaldehyde. Kind of data set: Staining of fixed cells with Compound 36. It counts as cell-based. Conditions: 10 uM in blocking buffer, 10 minutes, Cy3 channel. As to the method:
The high photostability and relatively long emission wavelength (˜565 nm) make the dye a useful cell counterstain. HeLa cells were plated on an 8-chambered Lab-Tek cover glass at 4×10^4 cells per chamber and cultured overnight. The day after plating, the cells were fixed in 4% paraformaldehyde/PBS for 15 minutes at room temperature. The cells were rinsed in PBS and blocked in PBS containing 5% normal goat serum and 0.1% Triton X-100 for 30 minutes at room temperature. Cells were stained with 10 uM Dye 36 in blocking buffer for 10 minutes at room temperature and imaged in the same solution by confocal microscopy in the Cy3 channel of a Zeiss LSM 700 confocal microscope.

The nature of data set [3]: Photostability of the dye. It counts as physicochemical.
The subject of data set [4] is calf thymus DNA. Briefly: DNA quantitation in solution (fluorescence linearity). On the procedure:
compounds 5, 7 and related compounds according to the invention can be used to quantitate double-stranded DNA in solution with high sensitivity and accuracy over a wide range of DNA concentrations, as shown in FIGS. 4 and 5. […] At […] dye concentration, compound 5 fluorescence is linear from 0.04-250 ng (FIG. 5).
The data shown in FIG. 4A was obtained under the following conditions: compound 7 at 0.5 μM was prepared in TE buffer (10 mM Tris, 1 mM EDTA, pH 7.5), and pipetted into wells of black 96-well plates at 200 μL per well. Two-fold dilutions of calf thymus DNA were prepared in TE buffer starting at 0.2 ng/uL, and 10 μL of each DNA dilution was added per 96 well to obtain a standard curve of 2 ng to 0.015 ng per well. The plates were incubated for five minutes at room temperature, protected from light, then read at 468 nm excitation and 507 nm emission using a Molecular Devices Gemini XS fluorescent plate reader. Triplicate samples were averaged and background fluorescence (no DNA) was subtracted. Fluorescence values were plotted against the DNA amount (ng/well). […] The R^2 values for linear regression are shown next to each curve. The data shown in FIG. 4B were obtained under similar condition except that compound 5 at 1 uM was used and serial DNA dilutions were from 250 ng to 0.04 ng.

In data set [5] the test system is live HeLa cells. Kind of data set: Staining of live cells. It counts as cell-based. The conditions noted are these: 10 uM, 30 minutes at 37 C. As to the method:
(§1) The images in the top panel of FIG. 6 were obtained under the following conditions: live HeLa cells were incubated with 10 uM compound 7, compound 8, or Dye 5 for 30 minutes at 37 C in a CO2 incubator. The images in the bottom panel of FIG. 6 were obtained under the following conditions: HeLa cells were formaldehyde-fixed, permeabilized, and blocked according to standard immunofluorescence staining protocols. Cell were stained with 10 μM compound 7, 8 or 5 in PBS/5% BSA for 30 minutes, then washed with PBS buffer and imaged. Live and fixed cells were imaged using an Olympus epifluorescence microscope equipped with a FITC filter set, Retiga 2000R Fast 1394 camera (QImaging), and Image-Pro Express software (Media Cybernetics).

Data set [6] deals with HeLa cells formaldehyde-fixed, permeabilized. Briefly: Staining of fixed cells. It counts as cell-based. Conditions: 10 μM in PBS/5% BSA, 30 minutes. On the procedure: as §1
Data set [7] has as its system Jurkat cells. Briefly: Cell number quantitation in cell suspensions. It counts as cell-based. Conditions: 10 uM final dye, 30 minutes at 37° C., 440,000 to 860 cells per well. On the procedure: The data in FIG. 7A were obtained under the following conditions: compound 5 or 7 at 20 uM in Hank's Balanced Salt Solution (HBSS) was pipetted into optical bottom black 96 well tissue culture plates at 50 μL per well. Two-fold serial dilutions of Jurkat cells in suspension culture were prepared in Hank's Balanced Salt Solution (HBSS) and pipetted into black 96 well plates at 50 μL per well to obtain a dilution curve of 440,000 to 860 cells per well, and a final dye concentration of 10 uM. Plates were incubated for 30 minutes at 37° C. in a 5% CO2 incubator, and fluorescence was read at 468/507 nm in a Molecular Devices Gemini XS fluorescent plate reader. Triplicate samples were averaged and background fluorescence (no cells) was subtracted. Fluorescence values were plotted against the DNA amount (ng/well). The R^2 values for linear regression are shown next to each curve. For comparison, cell numbers were quantitated using the CyQUANT NF Cell Proliferation Assay Kit (Life Technologies) according to the kit manual.

For data set [8], the system named is adherent HeLa cells. Kind of data set: Cell number quantitation in adherent cell cultures. It counts as cell-based. The conditions noted are these: 10 uM, 30 minutes at 37° C., 50,000 to 100 cells per well. On the procedure:
The data in FIG. 7B was obtained under the following conditions: adherent HeLa cells were seeded at densities ranging between 50,000 and 100 cells per well in optical bottom black 96 well tissue culture plates and allowed to adhere overnight at 37° C. in a 5% CO2 incubator. On the day after seeding, the cells were washed with HBSS and incubated in HBSS containing Dye 5 or Dye 7 at 10 uM for 30 minutes at 37° C. Fluorescence was read at 468/507 nm in a Molecular Devices Gemini XS fluorescent plate reader. Triplicate samples were averaged and background fluorescence (no cells) was subtracted. Fluorescence values were plotted against the DNA amount (ng/well). The R^2 values for linear regression are shown next to each curve. For comparison, cell numbers were quantitated using the CyQUANT NF Cell Proliferation Assay Kit (Life Technologies according to the kit manual.

The test system of data set [9] is linearized GAPDH-containing plasmid DNA. Briefly: Real-time PCR with plasmid DNA. Conditions: 0.34 uM dye, 5×10^5 copies plasmid. As to the method:
Compound 7 and related dyes can be used in real time PCR experiments to monitor amplification of target plasmid DNA. In FIG. 8, 5×10^5 copies of linearized GAPDH-containing plasmid DNA or water (non-template controls, NTC) were added to PCR reaction mixes containing 0.34 uM of either SYBR Green I (lines with solid diamonds (DNA) or “x's” (water)) or Compound 7 (lines with triangles (DNA) or circles (water)) and real time PCR was performed. […] The data in FIG. 8 were collected under the following conditions: PCR reactions consisted of a final concentration of 50 mM Tris-HCl (pH 8.6), 3 mM MgCl2, 50 μg/ml non-acetylated BSA (Sigma), 200 μM dNTPs (New England BioLabs), 500 nM GAPDH Forward primer ([NT]), 500 nM GAPDH Reverse primer ([NT]) (Integrated DNA Technologies), 1 U Hot-Start Cheetah Taq (Biotium, Inc.) and either 0.34 uM SYBR Green I (Life Technologies) or 0.34 uM compound 7. One microliter of 5×10^5 copies linearized pCMV-SPORT6 GAPDH plasmid (Open Biosystems) was added to each 20 ul reaction. Real time PCR was performed using the RotorGeneQ with the following cycling conditions: 95° C. for 2 minutes, followed by 45 cycles of 95° C. for 5 seconds and 60° C. for 30 seconds, with data acquisition during the elongation stage on the green channel.
(In general: In qPCR the cycle at which signal appears reflects the starting amount.)

Data set [10] concerns GAPDH cDNA from Jurkat cell purified mRNA. Briefly: Real-time PCR with cDNA. Conditions: 0.34 uM dye. On the procedure:
Compound 7 and related dyes can be used in real time PCR experiments to monitor amplification of target cDNA. In FIG. 9, serial dilutions of total cDNA generated from Jurkat cell purified mRNA were added to PCR reaction mixes containing 0.34 uM compound 7 and real time PCR was performed.
The data in FIG. 9 were collected under the following conditions: mRNA was purified from 4×10^6 Jurkat cells using Qiagen's RNeasy Kit and cDNA was then generated using oligo-dT primers and the ProtoScript First Strand cDNA Synthesis Kit (New England BioLabs). Serial 1:2 dilutions of the cDNA in water were prepared and added to PCR reactions consisting of a final concentration of 25 mM Tris-HCl (pH 8.6), 5 mM KCl, 10 mM (NH4)2SO4, 2 mM MgCl2, 2.5% glycerol, 5% DMSO, 200 uM dNTPs (New England BioLabs), 0.01% Tween-20, non-acetylated BSA (Sigma), 500 nM GAPDH Forward primer (5′-GAAGGTGAAGGTCGGAGTC-3′), 500 nM GAPDH Reverse primer (5′-[…]-3′) (Integrated DNA Technologies), 1 U Taq polymerase (Syzygy) modified using a HotStart Polymerase Modification Kit (Biotium, Inc.) and 0.34 uM compound 7. One microliter cDNA was added to each 20 ul reaction. Real time PCR was performed using the RotorGeneQ as described for FIG. 8.

The subject of data set [11] is CD3e PCR products (WT or single base pair change). Kind of data set: High-resolution melt curve analysis (HRM). On the set-up: species or system human. Conditions: compound 7 (0.07 μM) spiked into EvaGreen Master Mix. The text has this: The addition of a small amount of compound 7 to existing real time HRM Master Mixes can improve the resolution of the melting curves leading to higher confidence calls by HRM software. FIGS. 12 and 13 show normalized graphs (12A, 13A) and difference graphs (12B, 13B) from the HRM analysis of PCR products generated from template plasmids containing either a WT copy of CD3e or a version with a single base pair change. The genotype calls of the HRM software are also shown (12C, 13C).
The data in FIGS. 12 and 13 were collected under the following conditions: PCR reactions were performed as in FIG. 10 with 500 nM CD3e Forward primer (5′-[…]-3′) and […] CD3e Reverse primer (5′-[…]-3′). To each reaction, one microliter of approximately 1×10^6 copies/μl pME-human CD3e-6× His-HA was added, either with a wild type (WT) sequence or with a single nucleotide change (C to T) at base 54 from the start codon of the CD3e sequence. HRM analysis was performed on the RotorGeneQ immediately following template amplification from a temperature range of 76.5-86.5° C. ramping 0.1° C. every two seconds after initial 90 second pre-melt conditioning.

[12] abbreviates: 0.5 μM dye concentration, DNA 0.015-2 ng.
The mark [13] stands for this setting: in the presence of dsDNA, 10 mM pH 7.4 Tris buffer, room temperature.

This note sets out measurements from patent US9682970B2, “Fluorescent compounds and uses thereof” (BIOTIUM, INC., priority 2012, dated 2017).

`CC(=N)NCc1ccc2c(c1)C(C)(C)C(=CC(C)=CC1=[N+](C)c3ccc(CNC(C)=N)cc3C1(C)C)N2C` [Compound 36]: the emission wavelength in data set [1] is reported as around 565 nm. Besides, the “staining of nuclei of fixed cells” value in data set [2] is recorded as “good specificity”. Also, the photostability result in data set [3] is “high”.

Regarding `CN(C)CCCN(CCCN(C)C)c1cc(C=C2Sc3ccccc3N2C)c2ccccc2[n+]1-c1ccccc1` [PicoGreen, reference compound], the “linearity of fluorescence at lower DNA concentrations” value in data set [4] (setting [12]) is “lower than that of compound 7”.

In the case of `CCCN(CCCNC1=CC(=Cc2sc3ccccc3[n+]2C)c2ccccc2N1c1ccccc1)C(=N)N` [compound 5], the “fluorescence upon DNA binding” value in data set [1] (10 mM pH 7.4 Tris, with DNA) is listed as “highly fluorescent”. Further, in [1] (setting [13]), the absorption maximum was around 470 nm and the emission maximum is around 520 nm. In data set [4] (1 uM concentration (FIG. 4B)), the “DNA amount range of linearity of fluorescence” value was 0.05 to 250 ng. In data set [4] (1 mM dye concentration), the “DNA amount range over which fluorescence is linear” value fell in the range of 0.04 to 250 ng. In addition, the “staining of nuclei of live cells” value in data set [5] was “can specifically stain the nuclei”. Besides, the “staining of nuclei of fixed cells” value in data set [6] was “can specifically stain the nuclei”. Also, the “quantitation of cell numbers in cell suspensions” value in data set [7] is given as “can be used to quantitate cell numbers”. For the same compound, the “quantitation of cell numbers in adherent cell cultures” value in [8] is on record as “can be used to quantitate cell numbers”.

As for `CCCN(CCCNC1=CC(=Cc2sc3cccc4c3[n+]2CCC4)c2ccccc2N1c1ccccc1)C1=NCCN1` [compound 7], in data set [4] (setting [12]), the “sensitivity (slope of the titration curve) compared to PicoGreen” value is “more sensitive than PicoGreen”. In addition, in [5], the “staining of nuclei of live cells” value is listed as “can specifically stain the nuclei”. Besides, the “staining of nuclei of fixed cells” value in data set [6] is “can specifically stain the nuclei”. In [7], the “quantitation of cell numbers in cell suspensions” value is “can be used to quantitate cell numbers”. Besides, the “quantitation of cell numbers in adherent cell cultures” value in data set [8] is “can be used to quantitate cell numbers”. In [9], the “Ct value (in words)” value was “early”, the “amplification of target amplicon” value is “efficient amplification” and the endpoint fluorescent signal result is given as “high”. The “amplification of target amplicon from serial cDNA dilutions” value in [10] is recorded as “efficient amplification”. Moreover, the “effect on HRM analysis resolution” value in data set [11] is “improves HRM analysis resolution”.

On to `CCCN(CCCNC1=CC(=Cc2sc3cccc4c3[n+]2CCC4)c2ccccc2N1c1ccccc1)C(=N)N` [compound 8], for which, in data set [5], the “staining of nuclei of live cells” value was “can specifically stain the nuclei”. In addition, in [6], the “staining of nuclei of fixed cells” value is “can specifically stain the nuclei”.
